Molecular target: T1, HDAC6 (Homo sapiens, UniProt Q9UBN7)
T1 construct: Full length human recombinant HDAC6 protein; made in house
T1 sequence (Q9UBN7 1-1215): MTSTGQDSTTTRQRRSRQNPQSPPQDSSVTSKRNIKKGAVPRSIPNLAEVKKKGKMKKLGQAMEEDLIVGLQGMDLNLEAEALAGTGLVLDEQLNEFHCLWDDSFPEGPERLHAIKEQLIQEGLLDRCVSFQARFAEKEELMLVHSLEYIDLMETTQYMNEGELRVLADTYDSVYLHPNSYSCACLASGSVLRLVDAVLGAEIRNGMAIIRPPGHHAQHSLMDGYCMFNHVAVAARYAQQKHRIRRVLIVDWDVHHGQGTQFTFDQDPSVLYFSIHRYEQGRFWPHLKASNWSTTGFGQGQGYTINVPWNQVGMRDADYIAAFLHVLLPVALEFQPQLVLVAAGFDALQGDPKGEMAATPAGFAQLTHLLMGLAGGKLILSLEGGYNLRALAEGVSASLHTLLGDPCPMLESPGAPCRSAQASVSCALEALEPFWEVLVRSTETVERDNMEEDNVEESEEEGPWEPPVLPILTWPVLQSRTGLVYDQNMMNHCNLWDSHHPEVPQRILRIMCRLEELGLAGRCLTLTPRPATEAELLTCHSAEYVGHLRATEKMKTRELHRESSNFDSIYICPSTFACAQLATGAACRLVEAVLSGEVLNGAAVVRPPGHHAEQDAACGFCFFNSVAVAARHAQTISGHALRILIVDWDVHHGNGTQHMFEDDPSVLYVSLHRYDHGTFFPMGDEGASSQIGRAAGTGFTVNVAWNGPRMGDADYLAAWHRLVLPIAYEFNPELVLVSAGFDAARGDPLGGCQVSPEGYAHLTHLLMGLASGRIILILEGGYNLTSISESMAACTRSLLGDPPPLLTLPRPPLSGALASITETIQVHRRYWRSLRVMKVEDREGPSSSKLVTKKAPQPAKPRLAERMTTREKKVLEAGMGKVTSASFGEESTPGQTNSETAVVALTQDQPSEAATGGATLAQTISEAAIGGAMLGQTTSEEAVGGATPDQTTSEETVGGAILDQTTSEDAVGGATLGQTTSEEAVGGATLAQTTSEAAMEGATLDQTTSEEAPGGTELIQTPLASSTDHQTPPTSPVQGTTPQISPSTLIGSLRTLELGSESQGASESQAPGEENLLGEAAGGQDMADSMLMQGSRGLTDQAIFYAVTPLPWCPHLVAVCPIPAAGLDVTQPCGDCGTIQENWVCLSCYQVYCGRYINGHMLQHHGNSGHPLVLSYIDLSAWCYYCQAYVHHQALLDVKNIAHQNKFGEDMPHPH
Test: In vitro histone deacetylase assay: enzymatic HDAC6 assay by electrophoretic mobility shift
Type: biochemical
Details: full length human recombinant HDAC6 1 nM, 2 μM peptide substrate RHKK(Ac)-NH2, 25° C., 12 concentrations; read-out: Inhibitory Concentration (IC50) against HDAC6, Activity Range
Protocol: The enzymatic HDAC6 assay was performed using electrophoretic mobility shift assay. […] The enzymatic reactions were assembled in 384-well plates in a total volume of 25 μL of a reaction buffer comprising. 100 mM HEPES, pH 7.5, 25 mM KCl, 0.1% bovine serum albumin, 0.01% Triton X-100, 1% DMSO (from compounds), 2 μM of the fluorescently labeled peptide substrate, and enzyme. The enzyme was added at a final concentration of 1 nM. The peptide substrate RHKK(Ac)-NH2 was used. The compounds were tested at 12 concentrations spaced by 3× dilution intervals. Negative control samples (0%-inhibition in the absence of inhibitor) and positive control samples (100%-inhibition) were assembled in replicates of four in each assay plate. The reactions were incubated at 25° C. and quenched by the addition of 45 μL of termination buffer (100 mM HEPES, pH 7.5, 0.01% Triton X-100, 0.05% SDS).
The terminated assay plates were analyzed on LabChip® 3000 microfluidic electrophoresis instrument (Perkin Elmer/Caliper Life Sciences). The fluorescence intensity of the electrophoretically separated de-acetylated product and substrate peptide was measured. Activity in each sample was determined as the product to sum ratio (PSR):P/(S+P), where P is the peak height of the product peptide and S is the peak height of the substrate peptide. Percent inhibition (Pinh) is determined using the following equation:
Pinh=(PSR0%−PSRinh)/(PSR0%−PSR100%)*100, where PSRinh is the product sum ratio in the presence of inhibitor, PSR0% is the average product sum ration in the absence of inhibitor, and PSR100% is the average product sum ratio in 100%-inhibition control samples. The IC50 values of inhibitors were determined by fitting the %-inhibition curves with 4 parameter dose-response models using XLfit 4 software.

IC50 [nM] | Structure (SMILES)
≤ 100 | CC(=O)N1CCC(C(=O)N2Cc3ccc(C(=O)NO)cc3OC[C@@H]2c2ccccc2)CC1 [(S)-4-(1-acetylpiperidine-4-carbonyl)-N-hydroxy-3-phenyl-2,3,4,5-tetrahydrobenzo[f][1,4]oxazepine-8-carboxamide]
≤ 100 | COC1(C(=O)N2Cc3ccc(C(=O)NO)cc3OC[C@@H]2c2ccccc2)CCCCC1 [(S)-N-hydroxy-4-(1-methoxycyclohexane-1-carbonyl)-3-phenyl-2,3,4,5-tetrahydrobenzo[f][1,4]oxazepine-8-carboxamide]
100 to 500 | O=C(NO)c1ccc2c(c1)OC[C@@H](c1ccccc1F)N(C(=O)C1CCOCC1)C2 [(R)-3-(2-fluorophenyl)-N-hydroxy-4-(tetrahydro-2H-pyran-4-carbonyl)-2,3,4,5-tetrahydrobenzo[f][1,4]oxazepine-8-carboxamide]
≤ 100 | O=C(NO)c1ccc2c(c1)OC[C@H](c1ccccc1)N(C(=O)C1COC1)C2 [(S)-N-hydroxy-4-(oxetane-3-carbonyl)-3-phenyl-2,3,4,5-tetrahydrobenzo[f][1,4]oxazepine-8-carboxamide]
≤ 100 | O=C(NO)c1ccc2c(c1)OC[C@H](c1ccccc1)N(C(=O)c1ccncc1)C2 [(S)-N-hydroxy-4-isonicotinoyl-3-phenyl-2,3,4,5-tetrahydrobenzo[f][1,4]oxazepine-8-carboxamide]
> 500 | O=C(NO)c1ccc2c(c1)OC[C@@H](c1ccccc1C(F)(F)F)N(C(=O)C1CCOCC1)C2 (single isomer, unassigned)
≤ 100 | O=C(NO)c1ccc2c(c1)OC[C@H](c1ccccc1C(F)(F)F)N(C(=O)C1CCOCC1)C2 (single isomer, unassigned)
≤ 100 | O=C(NO)c1ccc2c(c1)OC[C@H](c1ccccc1F)N(C(=O)C1CCOCC1)C2 [(S)-3-(2-fluorophenyl)-N-hydroxy-4-(tetrahydro-2H-pyran-4-carbonyl)-2,3,4,5-tetrahydrobenzo[f][1,4]oxazepine-8-carboxamide]
≤ 100 | O=C(NO)c1ccc2c(c1)OC[C@H](c1cccc(Cl)c1)N(C(=O)C1CCOCC1)C2 [(S)-3-(3-chlorophenyl)-N-hydroxy-4-(tetrahydro-2H-pyran-4-carbonyl)-2,3,4,5-tetrahydrobenzo[f][1,4]oxazepine-8-carboxamide]
≤ 100 | O=C(NO)c1ccc2c(c1)OC[C@H](c1cccc(C(F)(F)F)c1)N(C(=O)C1CCOCC1)C2 (single isomer, unassigned)
≤ 100 | O=C(NO)c1ccc2c(c1)OC[C@H](c1ccccc1)N(C(=O)C1CCOCC1)C2 [(S)-N-hydroxy-3-phenyl-4-(tetrahydro-2H-pyran-4-carbonyl)-2,3,4,5-tetrahydrobenzo[f][1,4]oxazepine-8-carboxamide]
≤ 100 | COC1(C(=O)N2Cc3ccc(C(=O)NO)cc3OC[C@@H]2c2ccccc2)CC1 [(S)-N-hydroxy-4-(1-methoxycyclopropane-1-carbonyl)-3-phenyl-2,3,4,5-tetrahydrobenzo[f][1,4]oxazepine-8-carboxamide]
≤ 100 | COC(C)(C)C(=O)N1Cc2ccc(C(=O)NO)cc2OC[C@@H]1c1ccccc1 [(S)-N-hydroxy-4-(2-methoxy-2-methylpropanoyl)-3-phenyl-2,3,4,5-tetrahydrobenzo[f][1,4]oxazepine-8-carboxamide]
≤ 100 | O=C(NO)c1ccc2c(c1)OC[C@H](c1ccccc1)N(C(=O)c1cccnc1)C2 [(S)-N-hydroxy-4-nicotinoyl-3-phenyl-2,3,4,5-tetrahydrobenzo[f][1,4]oxazepine-8-carboxamide]
≤ 100 | CO[C@H]1CC[C@@H](C(=O)N2Cc3ccc(C(=O)NO)cc3OC[C@@H]2c2ccccc2)CC1 [(S)-N-hydroxy-4-((1s,4R)-4-methoxycyclohexane-1-carbonyl)-3-phenyl-2,3,4,5-tetrahydrobenzo[f][1,4]oxazepine-8-carboxamide]
≤ 100 | O=C(NO)c1ccc2c(c1)OC[C@@H](c1cccnc1)N(C(=O)C1CCOCC1)C2 (single isomer, unassigned)

Source: patent publication US11274084B2, “3-aryl-4-amido-bicyclic [4,5,0] hydroxamic acids as HDAC inhibitors” (Valo Health, Inc., priority 2015, dated 2022)
